In publication PMC8865918 (Journal of medicinal chemistry, 2022):
Several values for one entry are separate records, joined by “and”; a condition that tells them apart may be missing. Equal values may be shown once. Where a name gives a salt, the structure may show the parent alone. Each block holds one compound with its values, some of them ahead of it.

Tests used:
[1] = 30 (6a); ref 9 (6b); cited from earlier work
soluble hCD73 = target: T1, soluble hCD73 (Homo sapiens, UniProt P21589); experiment: Inhibition of soluble hCD73; format: biochemical; settings: for fold increase in potency (decrease in Ki) relative to compound 9: versus N^4-benzyloxy compound 9; for fold more potent than 22: versus compound 22
T1 sequence (P21589 27-549 limits assumed): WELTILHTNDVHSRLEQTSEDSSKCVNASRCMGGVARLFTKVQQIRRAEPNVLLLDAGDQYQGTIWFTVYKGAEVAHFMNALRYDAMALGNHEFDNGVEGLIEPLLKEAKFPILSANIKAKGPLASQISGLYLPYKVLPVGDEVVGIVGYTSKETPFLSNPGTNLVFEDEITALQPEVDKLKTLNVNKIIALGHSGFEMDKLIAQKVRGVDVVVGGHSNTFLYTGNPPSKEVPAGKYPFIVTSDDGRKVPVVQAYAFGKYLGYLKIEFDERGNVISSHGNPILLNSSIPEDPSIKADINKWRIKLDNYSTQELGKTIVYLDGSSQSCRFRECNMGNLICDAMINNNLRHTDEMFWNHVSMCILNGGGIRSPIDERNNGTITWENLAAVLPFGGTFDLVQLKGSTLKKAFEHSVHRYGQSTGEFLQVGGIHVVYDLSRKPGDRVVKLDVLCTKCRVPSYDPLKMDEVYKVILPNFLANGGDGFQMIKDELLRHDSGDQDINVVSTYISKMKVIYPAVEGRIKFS

σ1 receptor = σ1 receptor (Homo sapiens, UniProt Q99720); experiment: Off-target binding, Psychoactive Drug Screening Program
rat soluble CD73 = settings: read-out: Ki ± SEM; cited from earlier work
[2] = target: T2, tonsillar CD73 (human palatine tonsil cryosections) (Homo sapiens, UniProt P21589); experiment: In situ ecto-5′-nucleotidase; format: biochemical; settings: 50–250 nM inhibitor; 100 μM AMP; tonsillar germinal centers
T2 sequence (P21589 27-574): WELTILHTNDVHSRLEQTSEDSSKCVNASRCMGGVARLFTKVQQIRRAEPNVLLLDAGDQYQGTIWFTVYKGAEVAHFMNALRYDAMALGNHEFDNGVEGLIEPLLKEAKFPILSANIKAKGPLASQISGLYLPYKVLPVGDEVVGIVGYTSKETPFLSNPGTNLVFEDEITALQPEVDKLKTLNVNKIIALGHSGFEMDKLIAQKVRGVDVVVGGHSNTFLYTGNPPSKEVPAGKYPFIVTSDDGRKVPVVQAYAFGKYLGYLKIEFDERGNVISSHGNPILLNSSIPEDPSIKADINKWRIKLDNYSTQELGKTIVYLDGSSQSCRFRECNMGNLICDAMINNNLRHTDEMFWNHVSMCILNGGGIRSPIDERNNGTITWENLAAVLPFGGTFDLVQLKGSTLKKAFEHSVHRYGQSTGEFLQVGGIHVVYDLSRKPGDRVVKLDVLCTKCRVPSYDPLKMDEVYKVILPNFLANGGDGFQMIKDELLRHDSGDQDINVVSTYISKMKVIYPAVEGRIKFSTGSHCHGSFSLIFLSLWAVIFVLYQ

σ1 receptor, sequence (Q99720 whole entry, species assumed): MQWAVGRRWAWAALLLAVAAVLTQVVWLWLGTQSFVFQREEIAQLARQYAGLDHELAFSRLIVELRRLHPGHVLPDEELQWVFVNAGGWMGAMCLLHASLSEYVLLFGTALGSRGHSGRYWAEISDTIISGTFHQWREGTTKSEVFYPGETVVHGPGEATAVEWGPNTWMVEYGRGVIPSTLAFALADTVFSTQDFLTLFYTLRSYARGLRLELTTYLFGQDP

Compound: C[C@H](Nc1cc(Cl)nc2c1cnn2[C@@H]1O[C@H](COP(=O)(O)CP(=O)(O)O)[C@@H](O)[C@H]1O)c1ccccc1F [Compound 6a, Quemliclustat]
oral bioavailability [1]: display oral bioavailability

Compound: CCN(CC)CC.CCN(CC)CC.O=c1ccn([C@H]2[C@H](O)[C@H](O)[C@]3(COP(=O)(O)CP(=O)(O)O)C[C@H]23)c(=O)[nH]1 [Compound 28, {[({(2R,3S,4R,5S)-4-[2,4-Dioxo-3,4-dihydropyrimidin-1(2H)-yl]-2,3-dihydroxy-1λ^5-bicyclo[3.1.0]hexan-1-yl}methoxy)(hydroxy)phosphoryl]methyl}phosphonic Acid Triethylammonium Salt]
inhibition at 50 µM (soluble hCD73): 28%
% inhibition (soluble hCD73; soluble hCD73, between 0.03 nM and 50 μM): < 50%

Compound: CCN(CC)CC.CCN(CC)CC.Cn1c(=O)n([C@@H]2O[C@H](COP(=O)(O)CP(=O)(O)O)[C@@H](O)[C@H]2O)cc/c1=N/OCc1cccc(Cl)c1 [Compound 11, N^4-(3-Chlorobenzyloxy)-3-methylcytidine-5′-α,β-methylenediphosphonate Triethylammonium Salt]
fold increase in potency (decrease in Ki) relative to compound 9 (soluble hCD73; soluble hCD73): 6–7 fold

Compound: CCN(CC)CC.CCN(CC)CC.Cn1c(=O)n([C@@H]2O[C@H](COP(=O)(O)CP(=O)(O)O)[C@@H](O)[C@H]2O)cc/c1=N/OCc1ccccc1Cl [Compound 10, N^4-(2-Chlorobenzyloxy)-3-methylcytidine-5′-α,β-methylenediphosphonate Triethylammonium Salt]
fold increase in potency (decrease in Ki) relative to compound 9 (soluble hCD73; soluble hCD73): 6–7 fold

Compound: Cn1c(=O)n([C@@H]2O[C@H](COP(=O)(O)CP(=O)(O)O)[C@@H](O)[C@H]2O)cc/c1=N/OCc1ccc(Cl)cc1 [Compound 16, N^4-(4-Chlorobenzyloxy)-3-methylcytidine-5′-α,β-methylenediphosphonate Triethylammonium Salt]
Ki (σ1 receptor): 2610 ± 640 nM

Compound: N^4-benzyloxy-3-methylcytidine-5′-α,β-methylene-diphosphonate [Compound 9]
Ki (rat soluble CD73): 3.67 nM

Compound: CCN(CC)CC.CCN(CC)CC.Cn1c(=O)n([C@@H]2O[C@H](COP(=O)(O)CP(=O)(O)O)[C@@H](O)[C@H]2O)cc/c1=N/OCc1ccc(I)cc1 [Compound 18, N^4-(4-Iodobenzyloxy)-3-methylcytidine-5′-α,β-methylenediphosphonate Triethylammonium Salt]
fold increase in potency (decrease in Ki) relative to compound 9 (soluble hCD73; soluble hCD73): ~ 20 fold and 24 fold
effect on catalytic (AMPase) activity of tonsillar CD73 in situ [2]: decreased the catalytic activities

Compound: COC[C@](CO)(OC[C@H]1O[C@@H](n2ncc3c(NC4CCCC4)nc(Cl)nc32)[C@H](O)[C@@H]1O)P(=O)(O)O [Compound 6b, OP-5244]
oral bioavailability [1]: display oral bioavailability

Results, then the compound that gave them:

fold weaker inhibitor than ribose analogue 16 (soluble hCD73; soluble hCD73, versus compound 16): 88 fold and ~ 90 fold
Compound: CCN(CC)CC.CCN(CC)CC.Cn1c(=O)n([C@H]2[C@H](O)[C@H](O)[C@]3(COP(=O)(O)CP(=O)(O)O)C[C@H]23)cc/c1=N/OCc1ccc(Cl)cc1 [Compound 29, [({[(2R,3S,4R,5S)-4-(4-{[(4-Chlorobenzyl)oxy]imino}-3-methyl-2-oxo-3,4-dihydropyrimidin-1(2H)-yl)-2,3-dihydroxy-1λ^5-bicyclo[3.1.0]hexan-1-yl]methoxy}(hydroxy)phosphoryl)methyl]phosphonic Acid Triethylammonium Salt]

fold more potent than 22 (soluble hCD73; soluble hCD73): 5 fold
Compound: CCN(CC)CC.CCN(CC)CC.CCOC(=O)CCNC(=O)c1ccc(CO/N=c2/ccn([C@@H]3O[C@H](COP(=O)(O)CP(=O)(O)O)[C@@H](O)[C@H]3O)c(=O)n2C)cc1 [Compound 26, N^4-{4-[(3-Ethoxy-3-oxopropyl)carbamoyl]benzyloxy}-3-methylcytidine-5′-α,β-methylenediphosphonate Triethylammonium Salt]

fold weaker than methyl ester 21 (soluble hCD73; soluble hCD73, versus compound 21): 2 fold
Compound: CCN(CC)CC.CCN(CC)CC.Cn1c(=O)n([C@@H]2O[C@H](COP(=O)(O)CP(=O)(O)O)[C@@H](O)[C@H]2O)cc/c1=N/OCc1ccc(C(N)=O)cc1 [Compound 23, N^4-[4-(Carbamoyl)benzyloxy]-3-methylcytidine-5′-α,β-methylenediphosphate Triethylammonium Salt]

effect on catalytic (AMPase) activity of tonsillar CD73 in situ [2]: decreased the catalytic activities
Compound: CCN(CC)CC.CCN(CC)CC.Cn1c(=O)n([C@@H]2O[C@H](COP(=O)(O)CP(=O)(O)O)[C@@H](O)[C@H]2O)cc/c1=N/OCc1ccc(S(F)(F)(F)(F)F)cc1 [Compound 20, N^4-[4-(Pentafluorosulfanyl)benzyloxy]-3-methylcytidine-5′-α,β-methylenediphosphonate Triethylammonium Salt]

fold more potent than 22 (soluble hCD73; soluble hCD73): 5 fold
Compound: CCN(CC)CC.CCN(CC)CC.Cn1c(=O)n([C@@H]2O[C@H](COP(=O)(O)CP(=O)(O)O)[C@@H](O)[C@H]2O)cc/c1=N/OCc1ccc(C(=O)NCCC(=O)O)cc1 [Compound 27, N^4-{4-[(2-Carboxyethyl)carbamoyl]benzyloxy}-3-methylcytidine-5′-α,β-methylenediphosphonate Triethylammonium Salt]
